Measurements from patent US20150225377A1, “VEGFR3 INHIBITORS” (CANCER THERAPEUTICS CRC PTY LIMITED, priority 2012, published 2015).

Columns and labels:
[1] = biological target: T1, P397Y-FAK (Homo sapiens, UniProt Q05397); assay: P397Y-FAK inhibition MSD platform cellular biomarker assay; format: cell-based; settings: MDA-231-LNA cells, 1 hour compound
T1 construct: endogenous in cells; host or cells: MDA-231-LNA
Procedure: 96-well plates (cat#MA6000, Meso Scale Discovery) are coated with 30 μL/well of mouse monoclonal FAK antibody [63D5] (cat#ab72140, Abcam) pre-diluted in PBS to a concentration of 1 mg/mL. The plates are sealed with adhesive film and incubated for 16 hours at 4° C. The antibody is then flicked out of the plates and 150 μL of 3% [w/v] Blocker A (cat#R93AA-1, Meso Scale Discovery) is added. The plates are resealed with adhesive film and incubated at room temperature on a shaker set at medium speed for 2 hours. The plates are then washed three times with a solution containing 50 mM Tris-HCl pH 7.5, 0.15 M NaCl and 0.02% Tween-20, before cell lysate addition described below.
Cells are split 1:2 into T150 cell culture flasks 2 days prior to compound treatment. On the day prior to compound treatment, 200 μL media containing 20,000 cells is seeded into all wells of white, clear-bottom, TC treated, pclear, 96-well microtitre plates (cat#655098, Greiner Bio-One), and the plates are incubated at 37° C. and 5% CO2 for […]. 1 pUwell of compound is then added from dilution series prepared in DMSO. Negative control wells receive the same volume of DMSO without compounds, and positive control wells receive 2 μM of a control compound in the same volume of DMSO. Cells are treated for 1 hour at 37° C. and 5% CO2. The media/compounds are then flicked off and 55 pUwell of ice-cold complete lysis buffer is added. Complete lysis buffer is prepared by adding 1 tablet PhosSTOP complete phosphatase inhibitor (cat#04906837001, Roche) and 1 tablet Complete, Mini, EDTA-free, protease inhibitor (cat#04693159001, Roche) per 10 mL of incomplete lysis buffer (150 mM NaCl, 20 mM Tris-HCl pH 7.5, 1 mM EDTA, 1 mM EGTA, 1% Triton-X 100). Plates are incubated on ice for 30 minutes, with 30 seconds high speed plate shaking every 5 minutes. 40 μL/well of cell lysate is transferred to the coated, blocked and washed 96-well microtitre plates described above. The 96-well plates are sealed with adhesive film and incubated for 16 hours at 4° C. The plates are then washed three times with a solution containing 50 mM Tris-HCl pH 7.5, 0.15 M NaCl and 0.02% Tween-20 and tapped dry. 25 μL/well of detection solution (1% [w/v] Blocker A (cat#R93AA-1, Meso Scale Discovery) in 50 mM Tris-HCl pH 7.5, 0.15 M NaCl and 0.02% Tween-20, with 1:600 rabbit polyclonal FAK phospho Y397 antibody (cat#ab39967, Abcam), 1:1000 anti-rabbit sulfo-tag antibody (cat#R32AB-1 Meso Scale Discovery) and 1:40 reconstituted Blocker D-M (cat#D609-0100, Rockland Immunochemicals for Research)) is added, and the plates resealed with adhesive film and incubated for 1 hour at room temperature on a plate shaker set to medium speed. Plates are then washed three times with a solution containing 50 mM Tris-HCl pH 7.5, 0.15 M NaCl and 0.02% Tween-20 and tapped dry. 150 μL/well of Read Buffer T+Surfactant (cat#R92TC-1, Meso Scale Discovery) is then added, and pFAK-397 levels quantified using a Meso Scale Discovery SECTOR Imager 6000 instrument.

[2] = biological target: T2, VEGFR3 cytoplasmic domain (Homo sapiens, UniProt P35916); assay: VEGFR3 biochemical assay (AlphaScreen); settings: GST-VEGFR3 cytoplasmic domain, 500 μM ATP (modified form: His-fusion, 1 μM ATP)
T2 construct: VEGFR3 cytoplasmic domain (amino acids 798-1298) was purchased as N-terminal GST-fusion protein; GST (N); purchased
Procedure: Compounds of the invention may be tested for in vitro activity in the following assay: A biotin labelled peptide is used as substrate (amino acid sequence: Biotin-[…]NH2). VEGFR3 cytoplasmic domain (amino acids 798-1298) was purchased as N-terminal GST-fusion protein (“the enzyme”). The 15 μL assay reactions are run in Greiner brand white 384-well low volume plates. All reactions contained 10 mM HEPES pH 7.4, 10 mM MgCl2, 0.01% (v/v) Tween-20, 50 μM Na3VO4, 0.01% (w/v) albumin from chicken egg white, 1 mM Dithiothreitol, 111 nM peptide substrate, 500 μM ATP, and 3.8 ng/reaction enzyme, with the enzyme being omitted from negative control reactions. Compounds were added in a volume of […] from dilution series prepared in DMSO, positive and negative control reactions receiving the same volume DMSO without compound. The plates were sealed with adhesive seals and incubated for 90 minutes at 30 degree Celsius. The reactions were stopped with the detection reagents added at the same time as follows: Product formation was quantified as amplified luminescence between PerkinElmer AlphaScreen™ beads, using Streptavidin-coated donor and anti-phosphotyrosine (P-Tyr-100) acceptor beads. To each reaction, 5 μL containing 10 mM HEPES pH 7.4, 25 mM NaCl, 100 mM EDTA, 0.01% (v/v) Tween-20, and 6.25 μg/mL of each bead type were added. Plates were incubated for 6 hours before being read on a PerkinElmer EnVision™ plate reader in HTS Alphascreen™ mode. IC50 values were obtained by calculating percent inhibition (% I) for each reaction relative to controls on the same plate (% I=(I-CN)/(CP-CN) where CN/CP are the averages of the negative/positive reactions, respectively), then fitting the % I data vs. compound concentration [I] to % I=(A+((B−A)/(1+((C/[I])̂D)))) where A is the lower asymptote, B is the upper asymptote, C is the IC50 value, and D is the slope factor.
The above assay was also run in a modified form in some cases (indicated below with *). In these cases, VEGFR3 cytoplasmic domain (amino acids 818-1177, lacking 949-1002 of UniProt accession number P35916) was expressed and purified as N-terminal Hexa-His-fusion protein (“the enzyme”), rather than using the N-terminal GST-fusion protein. The assay conditions were the same as above but with 1 μM ATP and 8 ng/reaction of the enzyme.

[3] = biological target: T3, VEGFR3 (Homo sapiens, UniProt P35916); assay: VEGFR3 Phospho ELISA assay in HMVEC-dLyAD cells, VEGFC stimulated; format: cell-based; settings: 1 hour compound, 250 ng/mL VEGFC 10 minutes
T3 construct: host or cells: HMVEC-dLyAD
Procedure: Adult human dermal lymphatic microvascular endothelial cells (HMVEC-dLyAD) (Cat#CC-2810, Lonza) were seeded into clear-bottom, TC treated 12 well plates (Cat #665180, Greiner Bio-One) in EGM-2MV (Cat#CC-3202, Lonza) at 180,000 cells/well (volume 1 mL), and the plates incubated at 37° C. and 5% CO2 for 6 hours. The media was replaced with EBM-2 (Cat #CC-3156, Lonza)+0.1% BSA (Cat#A8412, Sigma) and cells incubated for a further period (overnight at 37° C. and 5% CO2).
96 well Maxisorp immuno plates (Cat #439454, Nunc) were coated with 100 μL of Total VEGFR3 capture antibody (Part #841888, Human Total VEGFR3/FLT4 ELISA Kit, Cat #DYC3491, R&D Systems), or Phospho VEGFR3 Capture antibody (Part #841885, Human Phospho VEGFR3/FLT4 ELISA Kit, Cat#DYC2724, R&D Systems). The plates were covered and incubated at room temperature overnight.
The coating antibody was flicked out and the plates washed three times with Wash Buffer (Phosphate buffered saline (137 mM NaCl, […], […], […], pH 7.2-7.4), 0.05% Tween 20). 300 μL of blocking buffer (5% v/v Tween 20, 5% w/v sucrose in PBS) was then added to wells and plate incubated for 2 hours at room temperature. Blocking solution is flicked out and plates washed three times and tapped dry.
Compound dilution series were prepared in EBM-2 (Cat #CC-3156, Lonza)+0.1% BSA (Cat#A8412, Sigma) with constant 0.1% DMSO concentration. 439 μL of sample or vehicle control was added to the cell monolayers. Cells are treated for 1 hour at 37° C. and 5% CO2. 250 ng/mL Recombinant human VEGFC (Cat #2179-VC, R & D Systems) added to wells and plates incubated for an additional 10 minutes at 37° C. and 5% CO2.
The media and compounds were removed and the cell monolayer washed once in Dulbecco's Phosphate Buffered Saline (Cat #21600-044, Invitrogen). 130 μL of Lysis buffer added to wells and cell lysate harvested and transferred to tubes and stored on ice. Complete lysis buffer was prepared by adding 10 μL Protease Inhibitor Cocktail (Cat #P8340, Sigma-Aldrich), 10 μL PMSF (Phenylmethanesulfonyl fluoride, Cat #P7626, Sigma-Aldrich, prepared as 500 mM DMSO stock) per 1 mL of Phosphosafe™ Extraction Reagent (Cat #71296, Merck).
The harvested samples were then diluted 1:2 in IC Diluent #18 (5% Tween 20/PBS) and 100 μL transferred to the Total and Phospho VEGFR3 coated, blocked and washed 96 well plates and incubated for 2 hours at room temperature. The plates were then washed three times in wash buffer as described above and tapped dry.
For detection of Total VEGFR3100 μL of Detection antibody (Total VEGFR3 Detection Antibody Part#841888 in Total VEGFR3 kit) diluted in IC Diluent #1 (1% w/v BSA (Cat #A7906, Sigma-Aldrich)/PBS) was added to wells and the plate incubated for 2 hours at room temperature. The plate was then washed three times in wash buffer and tapped dry. 100 μL of streptavidin-HPR diluted in IC diluent #1 Streptavidin-HRP, Part #890803 in Total VEGFR3 kit) was added to wells and incubated at room temperature for 20 minutes followed by washing as described above 100 μL Substrate solution (3,3′,5,5′-Tetramethylbenzidine (TMB) Liquid Substrate System for ELISA, Cat #T0440, Sigma-Aldrich) was added and the plate incubated for 20 minutes in the dark at room temperature followed by the addition of 50 μL stop solution (2 M H2SO4).
Total VEGFR3 levels were quantified using a Multiskan Ascent plate reader and Ascent software fitted with 450 nm filter.
For detection of Phospho VEGFR3, 100 μL of Detection antibody (Anti-Phospho-Tyrosine-HRP Detection Antibody, Part #841403 in Phospho VEGFR3 kit) was diluted in IC Diluent #1 (1% w/v BSA/PBS), added to the wells and the plate incubated for 2 hours at room temperature. The plate was then washed three times in wash buffer as described above and tapped dry. […]

T2 sequence (P35916 798-1298 isoform P35916-1): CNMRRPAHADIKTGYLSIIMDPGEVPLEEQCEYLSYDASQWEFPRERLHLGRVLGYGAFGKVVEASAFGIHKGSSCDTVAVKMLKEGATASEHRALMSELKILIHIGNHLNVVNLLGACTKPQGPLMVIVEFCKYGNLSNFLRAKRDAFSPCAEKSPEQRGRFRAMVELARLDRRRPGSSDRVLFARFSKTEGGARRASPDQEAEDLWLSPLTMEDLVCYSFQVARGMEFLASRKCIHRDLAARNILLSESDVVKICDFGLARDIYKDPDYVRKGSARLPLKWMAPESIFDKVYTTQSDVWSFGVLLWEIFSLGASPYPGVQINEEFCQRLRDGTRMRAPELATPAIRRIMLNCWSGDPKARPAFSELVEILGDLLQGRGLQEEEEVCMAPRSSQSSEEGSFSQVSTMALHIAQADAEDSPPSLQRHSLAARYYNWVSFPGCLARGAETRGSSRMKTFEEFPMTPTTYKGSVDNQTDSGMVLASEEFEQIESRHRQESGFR
T1 sequence (Q05397 2-1052 limits assumed, stated change not applied): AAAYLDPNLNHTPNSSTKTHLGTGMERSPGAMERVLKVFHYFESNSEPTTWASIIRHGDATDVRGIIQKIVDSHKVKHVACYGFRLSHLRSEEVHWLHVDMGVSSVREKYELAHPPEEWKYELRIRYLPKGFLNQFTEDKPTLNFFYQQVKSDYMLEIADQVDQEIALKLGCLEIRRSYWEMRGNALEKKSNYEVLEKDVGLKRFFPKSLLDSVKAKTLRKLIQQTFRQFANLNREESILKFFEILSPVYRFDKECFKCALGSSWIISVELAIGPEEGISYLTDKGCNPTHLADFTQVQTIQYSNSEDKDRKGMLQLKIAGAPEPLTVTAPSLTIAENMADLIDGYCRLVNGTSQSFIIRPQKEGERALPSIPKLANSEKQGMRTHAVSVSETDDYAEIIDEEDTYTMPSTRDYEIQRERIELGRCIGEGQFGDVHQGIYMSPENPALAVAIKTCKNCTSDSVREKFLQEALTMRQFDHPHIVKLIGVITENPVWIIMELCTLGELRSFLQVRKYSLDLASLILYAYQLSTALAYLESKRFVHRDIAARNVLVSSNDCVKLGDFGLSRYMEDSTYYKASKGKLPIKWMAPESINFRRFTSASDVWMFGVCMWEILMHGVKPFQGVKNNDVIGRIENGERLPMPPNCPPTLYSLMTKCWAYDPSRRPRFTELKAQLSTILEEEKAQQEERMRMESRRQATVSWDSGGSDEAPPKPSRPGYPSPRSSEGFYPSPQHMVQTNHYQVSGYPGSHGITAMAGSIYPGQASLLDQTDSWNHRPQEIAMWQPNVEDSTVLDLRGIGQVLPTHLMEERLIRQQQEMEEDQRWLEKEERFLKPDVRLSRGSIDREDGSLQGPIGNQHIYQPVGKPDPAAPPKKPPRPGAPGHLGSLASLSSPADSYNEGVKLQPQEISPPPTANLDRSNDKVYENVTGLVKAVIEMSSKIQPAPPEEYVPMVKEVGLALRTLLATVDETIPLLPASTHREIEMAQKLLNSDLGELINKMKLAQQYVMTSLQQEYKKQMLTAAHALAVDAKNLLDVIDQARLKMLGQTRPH
T3 sequence (P35916 25-1363): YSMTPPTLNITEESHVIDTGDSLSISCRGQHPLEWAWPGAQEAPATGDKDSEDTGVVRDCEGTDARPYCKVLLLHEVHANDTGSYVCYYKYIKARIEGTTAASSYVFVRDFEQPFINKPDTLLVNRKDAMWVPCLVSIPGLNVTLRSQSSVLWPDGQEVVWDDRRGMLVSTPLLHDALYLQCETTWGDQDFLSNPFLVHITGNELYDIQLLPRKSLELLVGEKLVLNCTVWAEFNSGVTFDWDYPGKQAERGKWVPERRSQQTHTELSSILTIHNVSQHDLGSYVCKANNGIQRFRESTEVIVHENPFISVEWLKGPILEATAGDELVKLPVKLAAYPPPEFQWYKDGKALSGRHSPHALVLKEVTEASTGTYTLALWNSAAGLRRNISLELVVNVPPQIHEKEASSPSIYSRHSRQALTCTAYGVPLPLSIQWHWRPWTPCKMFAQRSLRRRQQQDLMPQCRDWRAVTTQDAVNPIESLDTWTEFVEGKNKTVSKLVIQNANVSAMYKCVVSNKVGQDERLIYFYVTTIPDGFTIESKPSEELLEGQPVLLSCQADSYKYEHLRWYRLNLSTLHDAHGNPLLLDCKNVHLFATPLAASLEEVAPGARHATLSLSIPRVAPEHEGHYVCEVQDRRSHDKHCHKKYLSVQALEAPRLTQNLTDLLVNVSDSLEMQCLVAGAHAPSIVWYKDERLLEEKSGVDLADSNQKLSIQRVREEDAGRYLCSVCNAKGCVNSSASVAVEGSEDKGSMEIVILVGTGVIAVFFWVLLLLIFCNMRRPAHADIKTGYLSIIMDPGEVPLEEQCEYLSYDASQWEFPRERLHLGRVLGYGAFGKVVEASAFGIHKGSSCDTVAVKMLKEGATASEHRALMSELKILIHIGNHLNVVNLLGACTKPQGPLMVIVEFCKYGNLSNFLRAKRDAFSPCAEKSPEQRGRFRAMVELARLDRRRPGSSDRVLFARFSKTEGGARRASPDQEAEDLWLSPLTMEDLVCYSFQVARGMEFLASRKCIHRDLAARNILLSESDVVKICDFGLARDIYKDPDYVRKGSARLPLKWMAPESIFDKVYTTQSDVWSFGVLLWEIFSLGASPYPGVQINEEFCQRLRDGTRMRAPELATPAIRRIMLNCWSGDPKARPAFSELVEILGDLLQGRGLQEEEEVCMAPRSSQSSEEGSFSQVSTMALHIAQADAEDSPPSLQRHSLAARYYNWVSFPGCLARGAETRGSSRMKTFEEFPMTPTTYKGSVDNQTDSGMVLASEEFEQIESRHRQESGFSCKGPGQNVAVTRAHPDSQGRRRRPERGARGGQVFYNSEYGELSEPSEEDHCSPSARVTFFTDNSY

Row | IC50 [1] | IC50 [2] | SMILES | IC50 [3]
1 | 119 nM | 44 nM | Cc1ccc(CC(N)=O)c(CCc2nc(Nc3ccc(C4CCNCC4)cc3)ncc2C(F)(F)F)c1 [Compound 21, 2-(4-methyl-2-(2-(2-((4-(piperidin-4-yl)phenyl)amino)-5-(trifluoromethyl)pyrimidin-4-yl)ethyl)phenyl)acetamide] | 
2 | 944 nM | 101 nM | NC(=O)Cc1c(CCc2nc(Nc3ccc(C4CCNCC4)cc3)ncc2C(F)(F)F)cccc1C(F)(F)F [Compound 22, 2-(2-(2-(2-((4-(piperidin-4-yl)phenyl)amino)-5-(trifluoromethyl)pyrimidin-4-yl)ethyl)-6-(trifluoromethyl)phenyl)acetamide] | 

More lines, now with the values behind:

Row | SMILES | IC50 [1] | IC50 [2] | IC50 [3]
3 | NC(=O)Cc1ccccc1CCc1nc(Nc2ccc(CNCCO)cc2)ncc1C(F)(F)F [Compound 19, 2-(2-(2-(2-((4-(((2-hydroxyethyl)amino)methyl)phenyl)amino)-5-(trifluoromethyl)pyrimidin-4-yl)ethyl)phenyl)acetamide] | 7 nM | 70 nM | 
4 | NC(=O)Cc1ccccc1CCc1nc(Nc2ccc(C3CCNCC3)nc2)ncc1C(F)(F)F [Compound 13, 2-(2-(2-(2-((6-(piperidin-4-yl)pyridin-3-yl)amino)-5-(trifluoromethyl)pyrimidin-4-yl)ethyl)phenyl)acetamide] |  | 67 nM | 1030 nM
5 | NC(=O)Cc1cc(F)ccc1CCc1nc(Nc2ccc(C3CCNCC3)cc2)ncc1C(F)(F)F [Compound 9, 2-(5-fluoro-2-(2-(2-((4-(piperidin-4-yl)phenyl)amino)-5-(trifluoromethyl)pyrimidin-4-yl)ethyl)phenyl)acetamide] |  | 68 nM | 379 nM
